Reference: patent US8119624B2, “Fused phenyl amido heterocyclic compounds” (Pfizer Inc., priority 2006, dated 2012)
Where two headings read alike, the source gives them in different places.

Target: T1, Full-length glucokinase (beta cell isoform) (Homo sapiens, UniProt P35557)
T1 construct: Full-length glucokinase (beta cell isoform) was His-tagged at N-terminus; His tag (N); made in house
T1 sequence (P35557 1-465): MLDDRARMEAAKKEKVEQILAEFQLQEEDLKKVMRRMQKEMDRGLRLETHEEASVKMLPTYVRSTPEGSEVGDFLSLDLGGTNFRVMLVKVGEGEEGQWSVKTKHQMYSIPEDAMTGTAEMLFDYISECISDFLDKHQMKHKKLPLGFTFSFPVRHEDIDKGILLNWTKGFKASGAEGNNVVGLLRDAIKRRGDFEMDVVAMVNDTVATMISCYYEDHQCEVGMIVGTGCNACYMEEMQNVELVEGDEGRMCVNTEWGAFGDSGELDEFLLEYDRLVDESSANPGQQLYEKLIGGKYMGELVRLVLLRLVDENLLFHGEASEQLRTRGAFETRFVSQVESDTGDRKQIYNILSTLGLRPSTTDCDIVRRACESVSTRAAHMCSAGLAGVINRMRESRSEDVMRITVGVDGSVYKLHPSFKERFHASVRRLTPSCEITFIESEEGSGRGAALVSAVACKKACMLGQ
Assay: Glucokinase biochemical assay (PK/LDH-coupled, NADH depletion at 340 nm): % activation, EC50, % max activation
Conditions: 5 mM glucose; for EC50: read-out: EC50; for % Max Activation / Emax: fitted maximum activation; for activation at 10 µM: read-out: % Activation at 10 uM; for Emax: read-out: % Max Activation
Outline: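 N-terminally His-tagged full-length human beta-cell glucokinase, room temperature, 5 mM glucose, 1 mM ATP, PK/LDH-coupled with 0.7 mM NADH, 1% DMSO final. Initial velocity from the 200–900 s slope of A340 decline. % activation = (Va/Vo−1)×100, measured across compound concentrations.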

[1] = 10 uM compound, % Activation=(Va/Vo−1)×100
[2] = compound at 10 uM, 1 mM ATP, room temperature

| Compound | % Activation at 10 uM [1] [%] | EC50 (GK activation) [nM] | % Max Activation [%] | activation at 10 µM [1] [%] | Emax [%] | EC50 (1 mM ATP, room temperature) [nM] | activation at 10 µM [2] [%] | Emax (1 mM ATP) [%] |
| --- | --- | --- | --- | --- | --- | --- | --- | --- |
| CC1Cc2c(Oc3ccc(S(C)(=O)=O)cc3)cc(C(=O)Nc3ccn(C)n3)cc2O1 (single isomer, unassigned; (+)) [Example 13, (+)4-(4-Methanesulfonyl-phenoxy)-2-methyl-2,3-dihydro-benzofuran-6-carboxylic acid(1-methyl-1H-pyrazol-3-yl)-amide] | 182 | 1800 | 196 |  |  |  |  |  |
| Cc1cc2c(Oc3ccc(S(=O)(=O)N4CCC4)cc3)cc(C(=O)Nc3ccc(CO)cn3)cc2o1 [Example 301, 4-(4-(Azetidin-1-ylsulfonyl)phenoxy)-N-(5-(hydroxymethyl)-pyridin-2-yl)-2-methylbenzofuran-6-carboxamide] |  | 150 |  | 168 | 137 |  |  |  |
| Cn1ccc(NC(=O)c2cc(Oc3ccc(C(=O)N4CC[C@H](F)C4)c(F)c3)c3c(c2)OC(C)(C)C3)n1 [Example 63, 4-[3-Fluoro-4-((S)-3-fluoro-pyrrolidine-1-carbonyl)-phenoxy]-2,2-dimethyl-2,3-dihydro-benzofuran-6-carboxylic acid(1-methyl-1H-pyrazol-3-yl)-amide] |  | 230 |  | 170 | 158 |  |  |  |
| COCC1(C)Cc2c(Oc3ccc(S(C)(=O)=O)cc3)cc(C(=O)Nc3ccc(C)cn3)cc2O1 (centres unmarked) [Example 231, 4-(4-Methanesulfonyl-phenoxy)-2-methoxymethyl-2-methyl-2,3-dihydro-benzofuran-6-carboxylic acid (5-methyl-pyridin-2-yl)-amide] |  | 100 |  | 118 | 106 |  |  |  |
| Cn1ncc(NC(=O)c2cc(Oc3ccc(S(C)(=O)=O)c(Cl)c3)c3c(c2)OC(C)(C)C3)n1 [Example 118, 4-(3-Chloro-4-methanesulfonyl-phenoxy)-2,2-dimethyl-2,3-dihydro-benzofuran-6-carboxylic acid (2-methyl-2H-[1,2,3]triazol-4-yl)-amide] |  | 320 |  | 244 | 251 |  |  |  |
| CNC(=O)c1ncc(Oc2cc(C(=O)Nc3ccn(C)n3)cc3c2CC(C)(C)O3)cc1F [Example 176, 5-[2,2-Dimethyl-6-(1-methyl-1H-pyrazol-3-ylcarbamoyl)-2,3-dihydro-benzofuran-4-yloxy]-3-fluoro-pyridine-2-carboxylic acid methylamide] |  | 450 |  | 194 | 203 |  |  |  |
| Cc1ccc(NC(=O)c2cc(OC(C)C)cc3occc23)nc1 [Example 344, 6-Isopropoxy-N-(5-methylpyridin-2-yl)benzofuran-4-carboxamide] |  | 1400 |  | 89.5 | 106 |  |  |  |
| Cc1cc2cc(C(=O)Nc3ccn(C)n3)cc(Oc3ccc(C(=O)N(C)C)cc3)c2s1 [Example 331, 7-{4-[(Dimethylamino)carbonyl]phenoxy}-2-methyl-N-(1-methyl-1H-pyrazol-3-yl)-1-benzothiophene-5-carboxamide] |  | 320 |  | 47.4 | 56 |  |  |  |
| Cc1cc2c(Oc3ccc(S(C)(=O)=O)cn3)cc(C(=O)Nc3ccn(C)n3)cc2o1 [Example 283, 2-Methyl-N-(1-methyl-1H-pyrazol-3-yl)-4-(5-(methylsulfonyl)-pyridin-2-yloxy)-benzofuran-6-carboxamide] |  | > 10000 |  | 132 |  |  |  |  |
| Cn1ccc(NC(=O)c2cc(Oc3ccc(S(C)(=O)=O)cc3)c3c(c2)OC(C)(CF)C3)n1 (centres unmarked) [Example 251, 2-Fluoromethyl-4-(4-methanesulfonyl-phenoxy)-2-methyl-2,3-dihydro-benzofuran-6-carboxylic acid (1-methyl-1H-pyrazol-3-yl)-amide] |  | 430 |  | 141 | 169 |  |  |  |
| COCC1(C)Cc2c(Oc3ccc(C(=O)N4CCC4)c(F)c3)cc(C(=O)Nc3ccn(C)n3)cc2O1 (single isomer, unassigned; (+)) [Example 244, (+)-4-[4-(Azetidine-1-carbonyl)-3-fluoro-phenoxy]-2-methoxymethyl-2-methyl-2,3-dihydro-benzofuran-6-carboxylic acid (1-methyl-1H-pyrazol-3-yl)-amide] | 287 | 210 | 234 |  |  |  |  |  |
| COCc1nnc(NC(=O)c2cc(Oc3ccc(S(C)(=O)=O)cc3)c3c(c2)OC(C)(C)C3)s1 [Example 30, 4-(4-Methanesulfonyl-phenoxy)-2,2-dimethyl-2,3-dihydro-benzofuran-6-carboxylic acid(5-methoxymethyl-[1,3,4]thiadiazol-2-yl)-amide] |  | 4200 |  | 144 | 183 |  |  |  |
| Cn1cc(C(=O)COc2cc(C(=O)Nc3ccn(C)n3)cc3c2CC(C)(C)O3)cn1 [Example 105, 2,2-Dimethyl-4-[2-(1-methyl-1H-pyrazol-4-yl)-2-oxo-ethoxy]-2,3-dihydro-benzofuran-6-carboxylic acid (1-methyl-1H-pyrazol-3-yl)-amide] |  | 9400 |  | 70.1 | 102 |  |  |  |
| CCS(=O)(=O)c1ccc(Oc2cc(C(=O)Nc3cnn(C)n3)cc3c2CC(C)(C)O3)cc1F [Example 135, 4-(4-Ethanesulfonyl-3-fluoro-phenoxy)-2,2-dimethyl-2,3-dihydro-benzofuran-6-carboxylic acid (2-methyl-2H-[1,2,3]triazol-4-yl)-amide] |  | 97 |  | 239 | 257 |  |  |  |
| CCOc1ccc(NC(=O)c2cc(Oc3ccc(S(C)(=O)=O)cc3)c3cc(C)oc3c2)nc1 [Example 270, N-(5-ethoxypyridin-2-yl)-2-methyl-4-(4-(methylsulfonyl)-phenoxy)benzofuran-6-carboxamide] |  | 7100 |  | 98.2 | 139 |  |  |  |
| Cc1ccc(NC(=O)c2cc(Oc3ccc(S(C)(=O)=O)cc3)c3c(c2)C(=O)N(C)C3)nc1 [Example 376, 2-Methyl-N-(5-methylpyridin-2-yl)-7-(4-(methylsulfonyl)-phenoxy)-3-oxoisoindoline-5-carboxamide] |  |  |  |  |  | 6400 | 73.1 | 90 |
| COCC1(C)Cc2c(Oc3ccc(C(=O)N(C)C)c(F)c3)cc(C(=O)Nc3ccn(C)n3)cc2O1 (centres unmarked) [Example 234, 4-(4-Dimethylcarbamoyl-3-fluoro-phenoxy)-2-methoxymethyl-2-methyl-2,3-dihydro-benzofuran-6-carboxylic acid (1-methyl-1H-pyrazol-3-yl)-amide] |  | 75 |  | 121 | 112 |  |  |  |
| Cc1cc2cc(C(=O)Nc3ccn(C)n3)cc(O[C@@H](C)Cc3ccccc3)c2s1 [Example 328, 2-Methyl-7-(1-methyl-2-phenylethoxy)-N-(1-methyl-1H-pyrazol-3-yl)-1-benzothiophene-5-carboxamide] |  | > 10000 |  | 41.3 |  |  |  |  |
| Cn1ccc(NC(=O)c2cc(Oc3ccc(C(=O)N4CCC4)cc3)c3c(c2)OC(C(F)F)C3)n1 (centres unmarked) [Example 226, 4-[4-(Azetidine-1-carbonyl)-phenoxy]-2-difluoromethyl-2,3-dihydro-benzofuran-6-carboxylic acid (1-methyl-1H-pyrazol-3-yl)-amide] |  | 640 |  | 112 | 137 |  |  |  |
| CCS(=O)(=O)c1ccc(Oc2cc(C(=O)Nc3ccc(C)cn3)cc3c2CC(C)(C)O3)cc1 [Example 126, 4-(4-Ethanesulfonyl-phenoxy)-2,2-dimethyl-2,3-dihydro-benzofuran-6-carboxylic acid (5-methyl-pyridin-2-yl)-amide] |  | 37 |  | 137 | 118 |  |  |  |
| Cc1cc2c(Oc3ccc(S(C)(=O)=O)cc3)cc(C(=O)Nc3ccc(CO)cn3)cc2o1 [Example 266, N-(5-(Hydroxymethyl)pyridin-2-yl)-2-methyl-4-(4-(methylsulfonyl)-phenoxy)-benzofuran-6-carboxamide] |  | 1000 |  | 81.4 | 91 |  |  |  |
| Cn1ccc(NC(=O)c2cc(Oc3ccc(C(=O)N4CC(F)(F)C4)c(F)c3)c3c(c2)OC(C)(C)C3)n1 [Example 52, 4-[4-(3,3-Difluoro-azetidine-1-carbonyl)-3-fluoro-phenoxy]-2,2-dimethyl-2,3-dihydro-benzofuran-6-carboxylic acid(1-methyl-1H-pyrazol-3-yl)-amide] |  | 280 |  | 136 | 151 |  |  |  |
| COCc1cc2c(Oc3ccc(S(C)(=O)=O)cc3)cc(C(=O)Nc3ccc(C)cn3)cc2o1 [Example 309, 2-(Methoxymethyl)-N-(5-methylpyridin-2-yl)-4-[4-(methylsulfonyl)-phenoxy]-1-benzofuran-6-carboxamide] |  | 230 |  | 72.3 | 81 |  |  |  |
| Cn1ccc(NC(=O)c2cc(OCc3ccccc3)c3c(c2)C(=O)N(C2CC2)C3)n1 [Example 377, 7-(Benzyloxy)-2-cyclopropyl-N-(1-methyl-1H-pyrazol-3-yl)-3-oxoisoindoline-5-carboxamide] |  |  |  |  |  |  | 25.6 |  |
